The record followed here is PubChem BioAssay (NCI).

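Tested at 5 concentrations; 48 h exposure; 96-well plates; endpoints linearly interpolated, else capped at highest concentration. The concentration for 50% growth inhibition is given as GI50. TGI: concentration producing complete growth inhibition.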

Among the test systems are SNB-75 CNS; HCT-116 colon; 786-0 renal; A498 renal; KM12 colon; OVCAR-5 ovarian; SK-MEL-2 melanoma; K-562 leukemia; EKVX NSCLC.
Assay in all cases: growth of human tumour cells (NCI), 48 h

Consider `CC12CC(Sc3ccccc3N1)c1ccccc1O2` (stereo not drawn), for which the TGI was 53.3 µM in the test with SNB-75 CNS; 29.2 µM in the test with HCT-116 colon; 31.6 µM with 786-0 renal; 33 µM in the test with A498 renal; 28.6 µM in the test with KM12 colon; 33.3 µM in the test on OVCAR-5 ovarian. In addition, the TGI in the test on SK-MEL-2 melanoma stood at 25.4 µM; in the test with K-562 leukemia, 40.2 µM; with EKVX NSCLC, 33.4 µM.

With `FC(F)(F)c1[nH]ncc1-c1nc2ccc3[nH]ncc3c2c2c1CCCC2`, the GI50 in the test on SNB-75 CNS was 1.1 µM; in the test on HCT-116 colon, 0.523 µM; with 786-0 renal, 1.55 µM; with A498 renal it was 1.17 µM; with KM12 colon, 1.19 µM; in the test with OVCAR-5 ovarian it was 2.51 µM. Further, the figures for the GI50 in the test with SK-MEL-2 melanoma, in the test on K-562 leukemia and in the test with EKVX NSCLC were 1.64 µM, 2.71 µM and 1.99 µM, respectively. Further, the TGI in the test with SNB-75 CNS turned out to be 2.52 µM; in the test with HCT-116 colon, 10.6 µM; in the test with 786-0 renal it was 4.08 µM; with A498 renal, 2.6 µM; with KM12 colon it was 11.8 µM; in the test on OVCAR-5 ovarian it was 13.1 µM. For the same compound, the TGI in the test with SK-MEL-2 melanoma worked out at 3.61 µM; with K-562 leukemia it was 60.5 µM; in the test on EKVX NSCLC, 7.29 µM.

For `CCOP(=O)(CC(=O)C1=C(O)C(CCCCNC(=O)OC(C)(C)C)N(Cc2ccccc2)C1=O)OCC` (stereo not drawn), the TGI in the test with SNB-75 CNS, with HCT-116 colon, in the test with 786-0 renal, in the test on A498 renal, in the test with KM12 colon and with OVCAR-5 ovarian was above 100 µM each time. The TGI in the test on SK-MEL-2 melanoma, in the test with K-562 leukemia and in the test on EKVX NSCLC was above 100 µM each time.

Take `N=C(N)SCc1ccc([N+](=O)[O-])cc1[N+](=O)[O-]`: the GI50 in the test with SNB-75 CNS is 19.6 µM; in the test with HCT-116 colon, 3.53 µM; with 786-0 renal it was 11.8 µM; with A498 renal, 29.9 µM; in the test on KM12 colon it was 9.5 µM; in the test with OVCAR-5 ovarian it was 23.1 µM. The GI50 was 4.5 µM with SK-MEL-2 melanoma, 3.42 µM in the test with K-562 leukemia and 11 µM in the test with EKVX NSCLC. Also, the TGI came out at 50.5 µM in the test on SNB-75 CNS; 13.6 µM in the test with HCT-116 colon; 27.8 µM in the test with 786-0 renal; 66.6 µM with A498 renal; 22.7 µM in the test with KM12 colon; 40 µM in the test with OVCAR-5 ovarian. Besides, the TGI in the test with SK-MEL-2 melanoma turned out to be 16.6 µM; in the test on K-562 leukemia, 21 µM; in the test on EKVX NSCLC, 25.8 µM.

For `Cc1cnc(SCCN2CCN(C)CC2)nc1-c1cc2ccccc2s1`, the TGI in the test with SNB-75 CNS stood at 24.6 µM; with HCT-116 colon it was 26.8 µM; in the test on 786-0 renal it was 24.3 µM; in the test on A498 renal, 29.8 µM; in the test with KM12 colon, 32.2 µM; in the test with SK-MEL-2 melanoma it was 30.9 µM.

For the compound `CSc1nc(N)c2c(n1)NC(c1ccccc1)C1CCc3ccccc3C1=N2` (stereo not drawn), the GI50 in the test on SNB-75 CNS was above 100 µM; with HCT-116 colon, 7.39 µM; in the test on 786-0 renal it was above 100 µM; in the test with A498 renal, above 100 µM; in the test with KM12 colon it was 6.52 µM; with OVCAR-5 ovarian, above 100 µM. The GI50 in the test on SK-MEL-2 melanoma was 4.13 µM; in the test on K-562 leukemia, 4.12 µM; in the test on EKVX NSCLC it was 7 µM. Besides, the TGI in the test with SNB-75 CNS, with HCT-116 colon, in the test on 786-0 renal, in the test with A498 renal, in the test with KM12 colon and with OVCAR-5 ovarian was above 100 µM each time. Also, the figures for the TGI in the test on SK-MEL-2 melanoma, in the test on K-562 leukemia and in the test with EKVX NSCLC were 8.54 µM, above 100 µM and above 100 µM, respectively.

Turning to `Brc1ccc(C2SCc3nc4ccccc4n32)cc1` (stereo not drawn), the TGI came out at 0.745 µM with SNB-75 CNS; 19.6 µM with HCT-116 colon; 26 µM with 786-0 renal; 21.1 µM with KM12 colon; 25.2 µM with OVCAR-5 ovarian; 30.4 µM in the test on SK-MEL-2 melanoma. Besides, the TGI is above 100 µM in the test with K-562 leukemia and 33.8 µM with EKVX NSCLC.

As for `O=C(CC1C(=O)Nc2ccccc2S1(=O)=O)Nc1cccc(Cl)c1` (stereo not drawn), the TGI in the test with SNB-75 CNS stood at 31.8 µM; in the test on HCT-116 colon, 32.1 µM; with 786-0 renal, 29.1 µM; with A498 renal, 39.1 µM; in the test with OVCAR-5 ovarian, 59.1 µM; with SK-MEL-2 melanoma, 84 µM. Besides, the TGI came out at 38.4 µM in the test on K-562 leukemia and 42.2 µM in the test on EKVX NSCLC.

Turning to `Cc1ccc(S(=O)(=O)SCc2ccccc2)cc1`, the TGI with SNB-75 CNS is above 84.2 µM; in the test on HCT-116 colon, 26.4 µM; with 786-0 renal it was 31.4 µM; in the test with A498 renal it was above 100 µM; in the test with KM12 colon, 57.6 µM; with OVCAR-5 ovarian, above 100 µM. Also, the figures for the TGI in the test with SK-MEL-2 melanoma, in the test with K-562 leukemia and in the test on EKVX NSCLC were above 75.6 µM, 27.3 µM and 97.2 µM, respectively.

`CN1C(=O)C(=CN(C)c2ccccc2)C(=O)N(C)C1=O`: the TGI with SNB-75 CNS, in the test with HCT-116 colon, in the test on 786-0 renal, in the test on A498 renal, with KM12 colon and with OVCAR-5 ovarian was above 100 µM each time. The TGI in the test with SK-MEL-2 melanoma, in the test with K-562 leukemia and in the test with EKVX NSCLC was above 100 µM throughout.

For the compound `COC(=O)C(=O)C(CC(=O)Nc1cccc(C(F)(F)F)c1)C(=O)OC` (stereo not drawn), the TGI with SNB-75 CNS, in the test with HCT-116 colon, in the test with 786-0 renal, in the test with A498 renal, with OVCAR-5 ovarian and in the test on SK-MEL-2 melanoma was above 100 µM throughout. Further, the TGI with K-562 leukemia and with EKVX NSCLC was above 100 µM each time.

Consider `CCN(CC)CCC(=O)/C=C/c1ccc(C)cc1`, for which the TGI came out at 30.9 µM with SNB-75 CNS; 26.2 µM in the test on HCT-116 colon; 24.7 µM in the test on 786-0 renal; 24 µM with A498 renal; 7.98 µM in the test with KM12 colon; 32.6 µM with OVCAR-5 ovarian. Moreover, the TGI in the test on K-562 leukemia is above 100 µM; in the test on EKVX NSCLC, 32.4 µM.

Consider `O=C(NC(=O)c1cc2cc(Br)cc(Br)c2oc1=O)Oc1ccccc1`, for which the TGI is 33.6 µM in the test with SNB-75 CNS; above 100 µM with HCT-116 colon; above 100 µM in the test with 786-0 renal; above 100 µM in the test with A498 renal; above 100 µM in the test with KM12 colon; above 100 µM in the test with OVCAR-5 ovarian. The TGI with K-562 leukemia and with EKVX NSCLC was above 100 µM throughout.

Regarding `CC(C)(C)N=CN(C=C(c1ccccc1)c1ccccc1)C1CCCCC1`, the TGI is above 100 µM with SNB-75 CNS; above 100 µM in the test with HCT-116 colon; above 100 µM with 786-0 renal; 91.4 µM with A498 renal; above 100 µM with KM12 colon; above 100 µM in the test with OVCAR-5 ovarian. For the same compound, the results for the TGI with SK-MEL-2 melanoma, in the test on K-562 leukemia and in the test with EKVX NSCLC were above 100 µM, 39.9 µM and above 100 µM, respectively.

For the compound `COc1cc2ccc(CC(N)=O)cc2cc1OC`, the TGI in the test with SNB-75 CNS, in the test with HCT-116 colon, in the test on 786-0 renal, in the test with KM12 colon, in the test with OVCAR-5 ovarian and in the test with SK-MEL-2 melanoma was above 100 µM throughout. Moreover, the TGI with K-562 leukemia and in the test with EKVX NSCLC was above 100 µM in each case.

Consider `C/C=C1\CCC2c3[nH]c4ccccc4c3CCN2C1` (stereo not drawn), for which the TGI in the test with SNB-75 CNS, in the test on HCT-116 colon, in the test with 786-0 renal, with A498 renal, with KM12 colon and in the test with SK-MEL-2 melanoma was above 100 µM throughout. Besides, the TGI in the test with K-562 leukemia and with EKVX NSCLC was above 100 µM throughout.

As to `O=C1c2c(c3c4ccccc4[nH]c3c3[nH]c4ccccc4c23)C(=O)N1Cc1ccccc1`, the TGI with SNB-75 CNS was 8.01 µM; in the test with HCT-116 colon it was 8.76 µM; with 786-0 renal it was 11.3 µM; with KM12 colon it was 9.47 µM; in the test on OVCAR-5 ovarian, 7.61 µM; in the test on SK-MEL-2 melanoma it was 10.6 µM. Further, the TGI with K-562 leukemia was 14.2 µM; in the test on EKVX NSCLC, 23.7 µM.

Regarding `COc1cc2c(cc1OC)[C@@H]([C@H](O)c1ccccc1)NCC2`, the TGI with SNB-75 CNS, in the test with HCT-116 colon, in the test on 786-0 renal, in the test with A498 renal, with KM12 colon and in the test on OVCAR-5 ovarian was above 100 µM throughout. Moreover, the TGI in the test with SK-MEL-2 melanoma, with K-562 leukemia and with EKVX NSCLC was above 100 µM throughout.

With `O=C1CCC2(c3ccccc3)Nc3ccc(Cl)cc3N12` (stereo not drawn), the TGI in the test on SNB-75 CNS, in the test with 786-0 renal, with A498 renal, with KM12 colon, in the test with OVCAR-5 ovarian and with SK-MEL-2 melanoma was above 100 µM throughout. Further, the TGI in the test with K-562 leukemia and in the test with EKVX NSCLC was above 100 µM throughout.

In the case of `CCCCN1CCN(c2ccc3nc(-c4ccc5nc(-c6ccc(OCC)c(OCC)c6)[nH]c5c4)[nH]c3c2)CC1`, the GI50 was 0.65 µM in the test on SNB-75 CNS; 0.431 µM in the test with HCT-116 colon; 1.41 µM with 786-0 renal; 1.18 µM in the test with A498 renal; 1.42 µM with KM12 colon; 1.9 µM with OVCAR-5 ovarian. Also, the GI50 with K-562 leukemia was 0.529 µM. The TGI with SNB-75 CNS is 2.01 µM; with HCT-116 colon, 1.66 µM; in the test on 786-0 renal it was 2.84 µM; in the test on A498 renal, 2.47 µM; with KM12 colon, 2.99 µM; with OVCAR-5 ovarian, 3.4 µM. Moreover, the TGI with K-562 leukemia turned out to be 2.27 µM.

`Cc1cc2c(=O)cc(-c3ccc(F)cc3)oc2c(C(=O)O)c1C`: the TGI in the test with SNB-75 CNS, with HCT-116 colon, in the test on 786-0 renal, in the test with KM12 colon, in the test on OVCAR-5 ovarian and in the test on SK-MEL-2 melanoma was above 100 µM each time. The TGI in the test with K-562 leukemia and in the test with EKVX NSCLC was above 100 µM each time.
